Where two headings read alike, the source gives them in different places.
Assays:
[1] = system: anterior horn motor neurons
IbA1+ microglia = details: for IbA1+ Density / IbA1+ microglia Size: median ± SEM, n = 8
[2] = system: TDP-43+ anterior horn motor neurons
tau AT8+ NFT = details: averaged across 7 cortical regions
myelinated axon fibers = details: 7 of 16 vervets exposed to BMAA; NS, p=0.0956
[3] = vervet spinal cord, 210 mg/kg/day oral, 140 days, median ± SEM
[4] = lateral corticospinal tracts, Cervical Segment
[5] = lateral corticospinal tracts, Lumbar Segment
[6] = anterior horn, 210 mg/kg/day, 140 days, median ± SEM
[7] = lateral corticospinal tract, stimulated by BMAA dosing

CNC[C@H](N)C(=O)O [BMAA, β-N-methylamino-L-alanine]
median total BMAA concentration in spinal cord tissues (BMAA and BMAA L-serine dosing cohorts pooled, ±13.7 SE): 61.4 µg/g | Free BMAA per gram of spinal cord tissues [3]: 8.9 ± 3.9 ^NS μg/g | Hydrolyzed Protein Pellet BMAA per gram of spinal cord tissues [3]: 0.5 ± 0.3 ^NS μg/g | Hydrolyzed Supernatant BMAA per gram of spinal cord tissues [3]: 34.0 ± 20.5 ^NS μg/g | decrease of anterior horn neuronal numbers ([1]; BMAA 210 mg/kg/day, 140 days, p=0.0016): 23% | greater frequency of eosinophilic neurons vs rice flour controls ([1]; cervical spinal cord anterior horns, BMAA 210 mg/kg/day, 140 days, p=0.024): 4.3 fold | reduction in size of eosinophilic lower motor neurons ([1]; cervical spinal cord anterior horns, p<0.0001): 40% | increase of median numbers of GFAP+ astroglia (GFAP+ astroglia; anterior horn of the lumbar spinal cord, p=0.008, n=8): 44% | increase of density of GFAP+ activated astroglia (GFAP+ astroglia; anterior horns of the lumbar spinal cord, p=0.008): 1.4 fold | density and total area covered by IbA1+ microglia, cervical compared to lumbar segments (IbA1+ microglia; BMAA-dosed primates, p=0.0039): 1.5 fold | IbA1+ Density (IbA1+ microglia; [4]): 1831.8 ± 206.9 Ct | IbA1+ microglia Size (IbA1+ microglia; [4]): 15.4 ± 1.7^NS Px | IbA1+ Density (IbA1+ microglia; [5]): 1213.7 ± 151.5^NS Ct | IbA1+ microglia Size (IbA1+ microglia; [5]): 13.9 ± 1.9^NS Px | increase of total area covered by IbA1+ microglia vs rice flour controls (IbA1+ microglia; lateral corticospinal tracts, cervical spinal cord, p=0.011, n=8): 1.6 fold | increase of median density of IbA1+ microglia vs rice flour controls (IbA1+ microglia; lateral corticospinal tracts, cervical spinal cord, p=0.048, n=8): 1.7 fold | effect on the size of Iba1+ microglia (IbA1+ microglia; lateral corticospinal tracts, NS, p=0.260, n=8): did not have a significant effect | vervets with cytoplasmic mislocalization of FUS protein ([2]; 2 of the 16 BMAA-dosed vervets): 12.5% | vervets with neurons positive for TDP-43 cytoplasmic inclusion bodies ([2]; 12 of 16 vervets fed BMAA): 75% | number of TDP-43+ motor neurons per region of interest, All Spinal Cord Segments [2, 6]: 4.5 ± 1.7 | number of TDP-43+ motor neurons per region of interest, Cervical Segment [2, 6]: 3.0 ± 1.9 | number of TDP-43+ motor neurons per region of interest, Lumbar Segment [2, 6]: 3.0 ± 3.1 | mean density and distribution of TDP-43+ inclusions vs controls ([2]; toxin-dosed vervets, p=0.024): 5 fold | increase of median cortical tau AT8+ NFT density (tau AT8+ NFT; p<0.0001, n=8): 3.1 fold | vervets with loss of myelinated axon fiber staining in the lateral corticospinal tracts (myelinated axon fibers): 44%

N[C@@H](CO)C(=O)O [L-serine]
attenuation of CD68+ microglial expression by coadministration of L-serine (CD68+ microglia; [7]): 24% | effect of L-serine coadministration on CD68+ microglial nodule numbers, size and expression intensity (CD68+ microglia; p=0.01, n=8): reduced | effect of L-serine coadministration on median concentrations of BMAA in spinal cord (any fraction of the vervet spinal cord): did not significantly reduce | reduction of total number of GFAP+ astroglia by coadministration of L-serine (GFAP+ astroglia; anterior horn of the lumbar spinal cord, BMAA + L-serine both 210 mg/kg/day, p=0.008): 21% | reduction of total area of GFAP+ astroglia by coadministration of L-serine (GFAP+ astroglia; anterior horn of the lumbar spinal cord, automated image analysis, p=0.007): 20% | attenuation of mean Iba1+ microglia distribution by coadministration of L-serine (IbA1+ microglia; [7]): 32% | attenuation of BMAA-induced tau NFT density by coadministration of L-serine (tau AT8+ NFT): 40%
